Assay results published in ChEMBL document CHEMBL1201862, “PubChem BioAssay data set” (2004).
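Five compound concentrations were applied to cells in 96-well plates for 48 hours; endpoints were derived by simple linear interpolation of the resulting dose-response curve. GI50: concentration for 50% inhibition of growth.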 Calls of active or inactive are those of the source. Cut-off read from the data, not from the text of the source: active = GI50 up to about 1.1 µM and inactive = higher.

How the values were obtained:
Assay in all cases: inhibition of tumour cell growth, NCI panel, 48 h
SW-620 = test system: SW-620
OVCAR-8 = test system: OVCAR-8
OVCAR-4 = test system: OVCAR-4
U-251 = test system: U-251
KM12 = test system: KM12
EKVX = test system: EKVX
UO-31 = test system: UO-31
SNB-19 = test system: SNB-19
OVCAR-3 = test system: OVCAR-3
SK-OV-3 = test system: SK-OV-3
COLO 205 = test system: COLO 205
HT-29 = test system: HT-29
A549 = test system: A549
TK-10 = test system: TK-10
UACC-62 = test system: UACC-62
UACC-257 = test system: UACC-257
M14 = test system: M14
SN12C = test system: SN12C
HOP-62 = test system: HOP-62
HOP-92 = test system: HOP-92

Measured: GI50

CCN(CC)CCO[Si](OCCN(CC)CC)(OCCN(CC)CC)OCCN(CC)CC
inactive: SW-620 > 100 µM | OVCAR-8 > 100 µM | OVCAR-4 > 100 µM | U-251 > 100 µM | KM12 > 100 µM | EKVX > 100 µM | UO-31 > 100 µM | SNB-19 > 100 µM | OVCAR-3 > 100 µM | SK-OV-3 > 100 µM | COLO 205 > 100 µM | HT-29 > 100 µM | A549 > 100 µM | TK-10 > 100 µM | UACC-62 > 100 µM | UACC-257 > 100 µM | M14 > 100 µM | SN12C > 100 µM

Cc1cc(C)nc(NS(=O)(=O)c2ccc(NC(=O)c3cccc4c(Nc5ccc(S(=O)(=O)Nc6cc(C)on6)cc5)c5ccccc5nc34)cc2)n1
inactive: OVCAR-4 23.2 µM | U-251 18.4 µM | KM12 16.4 µM | HOP-62 19.1 µM | EKVX 24.9 µM | UO-31 35 µM | SNB-19 15.7 µM | OVCAR-3 19.9 µM | SK-OV-3 27.9 µM | HT-29 22.2 µM | TK-10 34.4 µM | UACC-62 20.3 µM | UACC-257 22.2 µM | M14 22.7 µM | SN12C 23 µM

CSc1sc(C)cc1-c1nsc(=O)o1
inactive: SW-620 > 100 µM | OVCAR-4 > 100 µM | U-251 > 100 µM | KM12 > 100 µM | EKVX > 100 µM | UO-31 > 100 µM | SNB-19 > 100 µM | HOP-92 > 100 µM | COLO 205 > 100 µM | HT-29 > 100 µM | A549 > 100 µM | UACC-62 > 100 µM | UACC-257 > 100 µM | M14 > 100 µM | SN12C > 100 µM

COc1cc2cnc3c4cc(OC(C)C)c(OC)cc4ccc3c2cc1OC
inactive: SW-620 > 100 µM | OVCAR-8 > 100 µM | OVCAR-4 > 100 µM | U-251 > 100 µM | KM12 > 100 µM | HOP-62 > 100 µM | EKVX > 100 µM | UO-31 > 100 µM | SNB-19 > 100 µM | OVCAR-3 > 100 µM | SK-OV-3 > 100 µM | COLO 205 > 100 µM | HT-29 > 100 µM | A549 > 100 µM | TK-10 > 100 µM | UACC-62 > 100 µM | UACC-257 > 100 µM | M14 > 100 µM | SN12C > 100 µM

CCOC(=O)C1(C#N)C(c2ccccc2)CC(O)(c2ccc(OC)cc2)C(C(=O)c2ccc(OC)cc2)C1c1ccccc1 (stereo not given)
inactive: SW-620 > 100 µM | OVCAR-8 > 100 µM | OVCAR-4 > 100 µM | U-251 > 100 µM | KM12 > 100 µM | HOP-62 > 100 µM | EKVX > 100 µM | UO-31 74.6 µM | SNB-19 32.4 µM | OVCAR-3 > 100 µM | SK-OV-3 > 100 µM | COLO 205 > 100 µM | HT-29 > 100 µM | A549 > 100 µM | TK-10 > 100 µM | UACC-62 > 100 µM | UACC-257 > 100 µM | M14 > 100 µM | SN12C > 100 µM

CCC12CC[C@H](C#N)N3CCc4c(n(c5ccccc45)C(=O)C1)C32 (stereo not given in full)
inactive: SW-620 14.9 µM | OVCAR-8 19.9 µM | OVCAR-4 12.1 µM | U-251 16.3 µM | KM12 8.17 µM | HOP-62 22.9 µM | EKVX 23 µM | UO-31 3.1 µM | SNB-19 > 10 µM | OVCAR-3 13.3 µM | SK-OV-3 35.3 µM | COLO 205 19.1 µM | HT-29 14.2 µM | A549 15.9 µM | TK-10 16.4 µM | UACC-62 12.2 µM | UACC-257 14 µM | M14 16.4 µM | SN12C 19.4 µM
